Measured values from ChEMBL document CHEMBL2074349, “Rifampicin enhances anti-cancer drug accumulation and activity in multidrug-resistant cells” (Biochem Pharmacol, 1995).

Columns and labels:
[1] = target: ATP-dependent translocase ABCB1 (Homo sapiens, UniProt P08183); test: TP_TRANSPORTER: inhibition of Azidopine photoaffinity labelling (Rifampicin: 200 uM) in membranes from K562 R7 cells; format: functional, cell membranes, Membrane; details: k562/r7, 200 µM
[2] = target: Multidrug resistance protein 1a (Rattus norvegicus) (UniProt Q6PSM0); test: TP_TRANSPORTER: increase in Vinblastine intracellular accumulation (Vinblastine: 0.0125 uM, Rifampicin: 200 uM) in RHC1 cells; format: functional, cell-based
Chain of Multidrug resistance protein 1a (Rattus norvegicus) (Q6PSM0 as listed by the source): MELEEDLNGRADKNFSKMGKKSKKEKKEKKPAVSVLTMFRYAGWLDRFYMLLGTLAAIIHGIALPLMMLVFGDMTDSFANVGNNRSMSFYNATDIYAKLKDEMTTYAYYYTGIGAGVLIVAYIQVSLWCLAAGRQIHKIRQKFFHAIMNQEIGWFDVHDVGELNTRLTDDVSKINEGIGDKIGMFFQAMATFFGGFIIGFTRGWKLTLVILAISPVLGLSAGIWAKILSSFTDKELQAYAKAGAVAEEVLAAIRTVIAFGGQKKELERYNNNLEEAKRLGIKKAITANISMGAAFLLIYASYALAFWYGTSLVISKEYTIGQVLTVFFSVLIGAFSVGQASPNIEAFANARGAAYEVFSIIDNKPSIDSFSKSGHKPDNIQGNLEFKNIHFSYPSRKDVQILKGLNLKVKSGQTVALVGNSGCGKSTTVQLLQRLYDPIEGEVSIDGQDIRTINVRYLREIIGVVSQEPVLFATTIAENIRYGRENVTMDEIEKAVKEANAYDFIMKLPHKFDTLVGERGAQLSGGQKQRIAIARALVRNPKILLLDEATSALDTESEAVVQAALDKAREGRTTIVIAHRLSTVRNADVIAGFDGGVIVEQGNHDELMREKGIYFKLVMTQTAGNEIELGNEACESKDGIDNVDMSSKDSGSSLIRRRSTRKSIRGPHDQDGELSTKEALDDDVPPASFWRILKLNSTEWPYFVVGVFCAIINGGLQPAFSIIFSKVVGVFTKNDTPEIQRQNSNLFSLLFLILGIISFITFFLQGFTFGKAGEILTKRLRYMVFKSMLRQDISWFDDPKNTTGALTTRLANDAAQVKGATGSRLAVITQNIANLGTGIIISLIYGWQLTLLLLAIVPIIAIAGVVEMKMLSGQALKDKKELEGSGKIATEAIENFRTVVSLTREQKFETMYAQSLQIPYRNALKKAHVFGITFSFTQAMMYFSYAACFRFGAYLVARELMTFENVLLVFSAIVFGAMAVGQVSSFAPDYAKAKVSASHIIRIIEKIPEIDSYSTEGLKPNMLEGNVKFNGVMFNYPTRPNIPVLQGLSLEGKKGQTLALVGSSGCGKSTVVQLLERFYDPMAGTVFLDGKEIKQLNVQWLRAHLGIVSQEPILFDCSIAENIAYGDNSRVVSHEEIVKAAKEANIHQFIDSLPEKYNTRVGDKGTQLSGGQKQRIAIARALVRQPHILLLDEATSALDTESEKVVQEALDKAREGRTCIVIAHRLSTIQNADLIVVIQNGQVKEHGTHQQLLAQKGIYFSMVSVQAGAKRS

[3] = target: Multidrug resistance protein 1a (Rattus norvegicus) (UniProt Q6PSM0); test: TP_TRANSPORTER: increase in Vinblastine intracellular accumulation (Vinblastine: 0.0125 uM, Rifamycin SV: 200 uM) in RHC1 cells; format: functional, cell-based
[4] = target: Multidrug resistance protein 1a (Rattus norvegicus) (UniProt Q6PSM0); test: TP_TRANSPORTER: increase in Vinblastine intracellular accumulation (Vinblastine: 0.0125 uM, Rifamycin B: 200 uM) in RHC1 cells; format: functional, cell-based

Chain of ATP-dependent translocase ABCB1 (P08183 whole entry): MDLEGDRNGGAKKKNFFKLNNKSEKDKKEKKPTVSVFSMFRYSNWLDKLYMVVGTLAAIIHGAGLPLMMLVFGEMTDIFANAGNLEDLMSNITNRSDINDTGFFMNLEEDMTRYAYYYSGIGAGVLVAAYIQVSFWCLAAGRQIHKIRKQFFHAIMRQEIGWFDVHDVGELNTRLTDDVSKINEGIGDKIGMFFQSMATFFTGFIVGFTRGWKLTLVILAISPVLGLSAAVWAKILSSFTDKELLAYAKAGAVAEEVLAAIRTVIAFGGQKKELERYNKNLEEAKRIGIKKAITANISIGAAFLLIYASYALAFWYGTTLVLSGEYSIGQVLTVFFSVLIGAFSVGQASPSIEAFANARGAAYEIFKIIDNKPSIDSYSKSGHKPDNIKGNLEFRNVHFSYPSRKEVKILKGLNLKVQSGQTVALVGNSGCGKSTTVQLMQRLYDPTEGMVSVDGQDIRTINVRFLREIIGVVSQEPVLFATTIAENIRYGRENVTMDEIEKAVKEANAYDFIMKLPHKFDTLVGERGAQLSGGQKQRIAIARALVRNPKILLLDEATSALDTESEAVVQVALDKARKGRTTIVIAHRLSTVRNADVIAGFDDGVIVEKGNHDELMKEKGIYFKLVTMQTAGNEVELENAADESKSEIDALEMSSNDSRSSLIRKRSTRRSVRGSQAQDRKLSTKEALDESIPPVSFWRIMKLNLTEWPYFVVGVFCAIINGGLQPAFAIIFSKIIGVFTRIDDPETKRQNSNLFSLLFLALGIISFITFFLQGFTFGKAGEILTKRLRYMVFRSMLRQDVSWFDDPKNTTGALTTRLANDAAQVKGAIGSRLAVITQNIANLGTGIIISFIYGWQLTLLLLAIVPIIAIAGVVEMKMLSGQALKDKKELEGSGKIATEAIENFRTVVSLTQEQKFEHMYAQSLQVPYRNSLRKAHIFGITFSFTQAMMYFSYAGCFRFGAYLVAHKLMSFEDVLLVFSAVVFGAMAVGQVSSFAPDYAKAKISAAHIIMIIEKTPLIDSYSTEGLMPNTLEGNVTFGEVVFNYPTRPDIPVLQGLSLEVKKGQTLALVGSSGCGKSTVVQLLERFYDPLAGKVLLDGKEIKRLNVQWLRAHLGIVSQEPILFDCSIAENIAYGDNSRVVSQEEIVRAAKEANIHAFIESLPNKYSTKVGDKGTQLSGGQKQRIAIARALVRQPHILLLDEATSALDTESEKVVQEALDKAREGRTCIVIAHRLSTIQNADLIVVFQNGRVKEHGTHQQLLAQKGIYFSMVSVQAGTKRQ

With `CO[C@H]1/C=C/O[C@@]2(C)Oc3c(C)c(O)c4c(O)c(c(/C=N/N5CCN(C)CC5)c(O)c4c3C2=O)NC(=O)/C(C)=C\C=C\[C@H](C)[C@H](O)[C@@H](C)[C@@H](O)[C@@H](C)[C@H](OC(C)=O)[C@@H]1C` [RIFAMPIN] the Activity [1] was “inhibitor [+]” and the Activity [2] was “inhibitor [+]”.
In the case of `CO[C@H]1/C=C/O[C@@]2(C)Oc3c(C)c(O)c4c(O)c(cc(O)c4c3C2=O)NC(=O)/C(C)=C\C=C\[C@H](C)[C@H](O)[C@@H](C)[C@@H](O)[C@@H](C)[C@H](OC(C)=O)[C@@H]1C`, the Activity [3] is reported as “inhibitor [+]”.
With `COC1/C=C/OC2(C)Oc3c(C)c(O)c4c(O)c(cc(OCC(=O)Nc5ccc(I)cc5)c4c3C2=O)NC(=O)/C(C)=C\C=C\C(C)C(O)C(C)C(O)C(C)C(OC(C)=O)C1C` (centres undefined) the Activity [4] was “is not an inhibitor [-]”.
